Test results: PubChem BioAssay AID2060483 (Molecular Pharmacology Branch, DTP, NCI, 2025)
pIC50: −log10 of the molar value.

System: K24384-001-R-PDC complex spheroids, viability
Test: Anticancer human tumor K24384-001-R-PDC patient-derived pancreatic adenocarcinoma cell line growth inhibition [GQUAD]
Conditions: for pIC50: curve of first compound; for viability, T/C: stronger effect = lower value
Procedure, shortened: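 Viability of tumor cells grown as complex spheroids with endothelial and stromal cells, exposed to drug combinations. Top concentration at or near clinical Cmax (else 10 microM), diluted in half-log increments.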

[1] = second compound 0.0316 µM, first compound 0.0316 µM
[2] = second compound 0.0316 µM, first compound 0.1 µM
[3] = second compound 0.0316 µM, first compound 0.316 µM
[4] = second compound 0.0316 µM, first compound 1 µM
[5] = second compound 0.0316 µM, first compound 3.16 µM
[6] = second compound 0.0316 µM, first compound 10 µM
[7] = second compound 0.1 µM, first compound 0.0316 µM
[8] = second compound 0.1 µM, first compound 0.1 µM
[9] = second compound 0.1 µM, first compound 0.316 µM
[10] = second compound 0.1 µM, first compound 1 µM
[11] = second compound 0.1 µM, first compound 3.16 µM
[12] = second compound 0.1 µM, first compound 10 µM
[13] = second compound 0.316 µM, first compound 0.0316 µM
[14] = second compound 0.316 µM, first compound 0.1 µM
[15] = second compound 0.316 µM, first compound 0.316 µM
[16] = second compound 0.316 µM, first compound 1 µM
[17] = second compound 0.316 µM, first compound 3.16 µM
[18] = second compound 0.316 µM, first compound 10 µM
[19] = second compound 1 µM, first compound 0.0316 µM
[20] = second compound 1 µM, first compound 0.1 µM
[21] = second compound 1 µM, first compound 0.316 µM
[22] = second compound 1 µM, first compound 1 µM
[23] = second compound 1 µM, first compound 3.16 µM
[24] = second compound 1 µM, first compound 10 µM
[25] = second compound 3.16 µM, first compound 0.0316 µM
[26] = second compound 3.16 µM, first compound 0.1 µM
[27] = second compound 3.16 µM, first compound 0.316 µM
[28] = second compound 3.16 µM, first compound 1 µM
[29] = second compound 3.16 µM, first compound 3.16 µM
[30] = second compound 3.16 µM, first compound 10 µM
[31] = second compound 10 µM, first compound 0.0316 µM
[32] = second compound 10 µM, first compound 0.1 µM
[33] = second compound 10 µM, first compound 0.316 µM
[34] = second compound 10 µM, first compound 1 µM
[35] = second compound 10 µM, first compound 3.16 µM
[36] = second compound 10 µM, first compound 10 µM
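Also: spheroids exposed to compounds for seven days.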

## C=CCn1c(=O)c2cnc(Nc3ccc(N4CCN(C)CC4)cc3)nc2n1-c1cccc(C(C)(C)O)n1 + CN(C)c1ccc(Nc2c3ccc(NC(=O)CCN4CCCC4)cc3nc3cc(NC(=O)CCN4CCCC4)ccc23)cc1
Second compound 0.0316 µM
  pIC50: 6.41
Second compound 0.1 µM
  pIC50: 6.58
Second compound 0.316 µM
  pIC50: 6.63
Second compound 1 µM
  pIC50: 6.56
Second compound 3.16 µM
  pIC50: 6.63
Second compound 10 µM
  pIC50: 6.64
[1]
  viability, T/C: 85.5%
[2]
  viability, T/C: 81%
[3]
  viability, T/C: 57.3%
[4]
  viability, T/C: 18%
[5]
  viability, T/C: 15.9%
[6]
  viability, T/C: 17.9%
[7]
  viability, T/C: 76.2%
[8]
  viability, T/C: 68.9%
[9]
  viability, T/C: 47%
[10]
  viability, T/C: 15.6%
[11]
  viability, T/C: 14%
[12]
  viability, T/C: 14.8%
[13]
  viability, T/C: 80.2%
[14]
  viability, T/C: 86.7%
[15]
  viability, T/C: 38.6%
[16]
  viability, T/C: 16.3%
[17]
  viability, T/C: 12%
[18]
  viability, T/C: 14.5%
[19]
  viability, T/C: 76.7%
[20]
  viability, T/C: 83.3%
[21]
  viability, T/C: 45.9%
[22]
  viability, T/C: 19.1%
[23]
  viability, T/C: 12.2%
[24]
  viability, T/C: 18%
[25]
  viability, T/C: 84.2%
[26]
  viability, T/C: 80.3%
[27]
  viability, T/C: 39.3%
[28]
  viability, T/C: 19.3%
[29]
  viability, T/C: 16.3%
[30]
  viability, T/C: 13.6%
[31]
  viability, T/C: 63.5%
[32]
  viability, T/C: 64.8%
[33]
  viability, T/C: 44.5%
[34]
  viability, T/C: 20%
[35]
  viability, T/C: 16.9%
[36]
  viability, T/C: 13.1%

## CC1COCCN1c1cc(-c2ccnn2C)c2ccnc(-c3ccn[nH]3)c2n1 (stereo unspecified) + Cc1[nH]c2ccc(F)cc2c1-c1nc2c3cccnc3c3ncccc3c2[nH]1
Second compound 0.0316 µM
  pIC50: 6.67
Second compound 0.1 µM
  pIC50: 6.62
Second compound 0.316 µM
  pIC50: 6.66
Second compound 1 µM
  pIC50: 6.75
Second compound 3.16 µM
  pIC50: 7.24
Second compound 10 µM
  pIC50: 7.29
[1]
  viability, T/C: 84.6%
[2]
  viability, T/C: 63.7%
[3]
  viability, T/C: 45.1%
[4]
  viability, T/C: 28.7%
[5]
  viability, T/C: 44.8%
[6]
  viability, T/C: 31.8%
[7]
  viability, T/C: 68.7%
[8]
  viability, T/C: 68.9%
[9]
  viability, T/C: 44.3%
[10]
  viability, T/C: 31.1%
[11]
  viability, T/C: 45%
[12]
  viability, T/C: 36.5%
[13]
  viability, T/C: 71.4%
[14]
  viability, T/C: 76.5%
[15]
  viability, T/C: 38.7%
[16]
  viability, T/C: 33.5%
[17]
  viability, T/C: 39.8%
[18]
  viability, T/C: 38.2%
[19]
  viability, T/C: 62.1%
[20]
  viability, T/C: 64.6%
[21]
  viability, T/C: 29.5%
[22]
  viability, T/C: 41.5%
[23]
  viability, T/C: 39.6%
[24]
  viability, T/C: 36.3%
[25]
  viability, T/C: 55.5%
[26]
  viability, T/C: 48.1%
[27]
  viability, T/C: 31.4%
[28]
  viability, T/C: 41%
[29]
  viability, T/C: 29.3%
[30]
  viability, T/C: 35.7%
[31]
  viability, T/C: 57.4%
[32]
  viability, T/C: 39.9%
[33]
  viability, T/C: 30.3%
[34]
  viability, T/C: 31.5%
[35]
  viability, T/C: 24.1%
[36]
  viability, T/C: 28.9%

## CC1COCCN1c1cc(C2(S(C)(=N)=O)CC2)nc(-c2ccnc3[nH]ccc23)n1 (stereo unspecified) + Cc1[nH]c2ccc(F)cc2c1-c1nc2c3cccnc3c3ncccc3c2[nH]1
Second compound 0.0316 µM
  pIC50: 5.79
Second compound 0.1 µM
  pIC50: 5.77
Second compound 0.316 µM
  pIC50: 5.82
Second compound 1 µM
  pIC50: 5.70
Second compound 3.16 µM
  pIC50: 5.69
Second compound 10 µM
  pIC50: 5.90
[1]
  viability, T/C: 82.5%
[2]
  viability, T/C: 94.6%
[3]
  viability, T/C: 112%
[4]
  viability, T/C: 64.2%
[5]
  viability, T/C: 37.2%
[6]
  viability, T/C: 22.6%
[7]
  viability, T/C: 87.1%
[8]
  viability, T/C: 95.7%
[9]
  viability, T/C: 107%
[10]
  viability, T/C: 66.6%
[11]
  viability, T/C: 34.6%
[12]
  viability, T/C: 27.5%
[13]
  viability, T/C: 81.6%
[14]
  viability, T/C: 85.5%
[15]
  viability, T/C: 101%
[16]
  viability, T/C: 58.8%
[17]
  viability, T/C: 38.5%
[18]
  viability, T/C: 29.2%
[19]
  viability, T/C: 87.5%
[20]
  viability, T/C: 84.1%
[21]
  viability, T/C: 87.1%
[22]
  viability, T/C: 63.6%
[23]
  viability, T/C: 41.5%
[24]
  viability, T/C: 31.6%
[25]
  viability, T/C: 71.6%
[26]
  viability, T/C: 72.6%
[27]
  viability, T/C: 72.9%
[28]
  viability, T/C: 61%
[29]
  viability, T/C: 43%
[30]
  viability, T/C: 26%
[31]
  viability, T/C: 56.5%
[32]
  viability, T/C: 64.4%
[33]
  viability, T/C: 58.5%
[34]
  viability, T/C: 54.3%
[35]
  viability, T/C: 32.5%
[36]
  viability, T/C: 16.5%
